Positions of bridges follow the written chain, without caps; N, C: chain ends. Non-standard residues stand in square brackets, D forms with d. Residues, ends and D or L forms follow the SMILES beside them. 2Nal = N[C@@H](Cc1ccc2ccccc2c1)C(=O)O; Cit = NC(=O)NCCC[C@H](N)C(=O)O; Ahp(2) = CCCCC[C@H](N)C(=O)O; NMeNle = CCCC[C@H](NC)C(=O)O; NHexGly = CCCCCCNCC(=O)O; Nle = CCCC[C@H](N)C(=O)O; Orn = NCCC[C@H](N)C(=O)O; NBuGly = CCCCNCC(=O)O

This experiment concerns the target T1, mouse VISTA (mVISTA) (Mus musculus, UniProt Q9D659).
T1 construct: expressed in transfected cells; host or cells: Human embryonic kidney 293T cells
T1 sequence (Q9D659 33-308): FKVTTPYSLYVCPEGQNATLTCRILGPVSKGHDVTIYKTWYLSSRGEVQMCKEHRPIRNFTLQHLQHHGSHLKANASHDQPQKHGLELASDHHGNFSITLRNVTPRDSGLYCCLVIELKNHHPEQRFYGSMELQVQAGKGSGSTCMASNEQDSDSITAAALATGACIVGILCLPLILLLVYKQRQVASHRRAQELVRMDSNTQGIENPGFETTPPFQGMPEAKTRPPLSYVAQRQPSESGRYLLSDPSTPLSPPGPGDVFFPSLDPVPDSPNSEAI
The experiment is described as follows: Cell-Based Binding High-Content Assay For mVISTA (HC CBA mVISTA). As to conditions: cell-based binding high-content assay, mVISTA; the 16th table; read-out: HC CBA mVISTA IC50. The procedure:
Cell-Based Binding High-Content Assay For mVISTA
Human embryonic kidney 293T cells (293T) expressing mouse VISTA (mVISTA) were used for the assessment of compounds competing with the binding of a biotinylated peptide. Cryopreserved cells were thawed in a 37° C. water bath and incubated overnight at a 37° C./5% CO2 incubator in assay culture media DMEM (Life Technologies Inc. Cat. No. 11995-126) supplemented with 10% (v/v) FBS (Sigma, Cat. No. F4135), 1× Penicillin/Streptomycin (Life Technologies Inc. Cat. No. 15140-122). Cells were harvested, washed and resuspended in DMEM media […]. To test compounds under “no-wash” condition, cells were seeded into PDL-coated 384 well plates (Corning, Cat. No. 356663) at 4,000 cells/20 μL. After incubating the cell plates for two hours at a 37° C./5% CO2 incubator, 125 nL of test compound was added using an ECHO. Alternatively, to test compounds under “wash” condition, test compounds were added first, followed by addition of 20 μL cells at a density of 4000 cells/well. After incubation for an hour, the media was removed, followed by addition of 20 μL of fresh media ( ), and plates were then incubated for another hour. To plates either under “no wash” or “wash” condition, the biotinylated peptide was added to a final concentration of 2 nM, and plates were incubated at room temperature for 30 minutes. Fifteen (15) μL of Alexa 647 conjugated Streptavidin (Life Tech, Cat. No. S21374), suspended at 2 μg/ml in media, was added to the assay plate and incubate for 30 minutes. Cells were fixed by adding 15 μL of formaldehyde at a final concentration of 8% (w/v) (Sigma Cat. No. 252549), 20 μg/mL Hoechst (Thermo Scientific Cat. No. 62249) in PBS for 10 minutes at room temperature. The plates were washed 3 times in dPBS, sealed, and read on a CellInsight NXT High Content Screening Platform IC903000 (Thermo Scientific). The 50% effective concentration (IC50) was calculated using the four-parameter logistic formula y=A+((B−A)/(1+((C/x)^D))), where A and B denote minimal and maximal % inhibition, respectively, C is the EC50, D is hill slope and x represent compound concentration.
Broadly, the IC50 is the concentration that inhibits the measured activity by half. In the case of `CCCCCCN1CC(=O)N[C@@H](Cc2ccc(O)cc2)C(=O)N[C@@H](CCCC)C(=O)N[C@@H](CC(=O)O)C(=O)N[C@@H](CCCNC(N)=O)C(=O)N(C)[C@@H](CCCC)C(=O)N[C@@H](CCCCC)C(=O)N2CCC[C@H]2C(=O)N[C@@H](C(C)C)C(=O)N[C@@H](CC(=O)O)C(=O)N[C@H](C(=O)N[C@@H](CC(=O)O)C(N)=O)CSCC(=O)N[C@@H](Cc2ccc3ccccc3c2)C(=O)N[C@@H](Cc2ccc(O)cc2)C(=O)N[C@@H](CC(=O)O)C1=O` [Ex 1265] ({CH2CO}-[2Nal]YD[NHexGly]Y[Nle]D[Cit][NMeNle][Ahp(2)]PVDCD-NH2; thioether N-14), the IC50 worked out at 9 nM.
The figure for `CCCCCCN1CC(=O)N[C@@H](Cc2ccc(O)cc2)C(=O)N[C@@H](CCCC)C(=O)N[C@@H](CC(=O)O)C(=O)N[C@@H](CCCNC(=N)N)C(=O)N(C)[C@@H](CCCC)C(=O)N[C@@H](CCCCC)C(=O)N2CCC[C@H]2C(=O)N[C@@H](C(C)C)C(=O)N[C@@H](CC(=O)O)C(=O)N[C@H](C(=O)N[C@@H](CC(=O)O)C(N)=O)CSCC(=O)N[C@@H](Cc2ccc3ccccc3c2)C(=O)N[C@@H](Cc2ccc(O)cc2)C(=O)N[C@@H](CC(=O)O)C1=O` [Ex 1266] ({CH2CO}-[2Nal]YD[NHexGly]Y[Nle]DR[NMeNle][Ahp(2)]PVDCD-NH2; thioether N-14) is 6.5 nM.
On to `CCCCCCN1CC(=O)N[C@@H](Cc2ccc(O)cc2)C(=O)N[C@@H](CCCC)C(=O)N[C@@H](CC(=O)O)C(=O)N[C@@H](CCCNC(=N)N)C(=O)N[C@@H](CC(C)C)C(=O)N[C@@H](CCCCC)C(=O)N2CCC[C@H]2C(=O)N[C@@H](C(C)C)C(=O)N[C@@H](CC(=O)O)C(=O)N[C@H](C(=O)N[C@@H](CC(=O)O)C(N)=O)CSCC(=O)N[C@@H](Cc2ccc3ccccc3c2)C(=O)N[C@@H](Cc2ccc(O)cc2)C(=O)N[C@@H](CC(=O)O)C1=O` [Ex 1267] ({CH2CO}-[2Nal]YD[NHexGly]Y[Nle]DRL[Ahp(2)]PVDCD-NH2; thioether N-14), for which the IC50 was 15.3 nM.
The figure for `CCCCCCN1CC(=O)N[C@@H](Cc2ccc(O)cc2)C(=O)N[C@@H](CCCC)C(=O)N[C@@H](CC(=O)O)C(=O)N[C@@H](CCCN)C(=O)N[C@@H](CC(C)C)C(=O)N[C@@H](CCCCC)C(=O)N2CCC[C@H]2C(=O)N[C@@H](C(C)C)C(=O)N[C@@H](CC(=O)O)C(=O)N[C@H](C(=O)N[C@@H](CC(=O)O)C(N)=O)CSCC(=O)N[C@@H](Cc2ccc3ccccc3c2)C(=O)N[C@@H](Cc2ccc(O)cc2)C(=O)N[C@@H](CC(=O)O)C1=O` [Ex 1268] ({CH2CO}-[2Nal]YD[NHexGly]Y[Nle]D[Orn]L[Ahp(2)]PVDCD-NH2; thioether N-14) is 9.7 nM.
As for `CCCCC[C@@H]1NC(=O)[C@H](CC(C)C)NC(=O)[C@H](CCCNC(=N)N)NC(=O)CNC(=O)[C@H](C(C)C)NC(=O)[C@H](Cc2ccc(O)cc2)NC(=O)CN(CCCC)C(=O)[C@H](CC(=O)O)NC(=O)[C@H](Cc2ccc(O)cc2)NC(=O)[C@H](Cc2ccc3ccccc3c2)NC(=O)CSC[C@@H](C(=O)NCC(=O)O)NC(=O)[C@H](CC(=O)O)NC(=O)[C@H](C(C)C)NC(=O)[C@@H]2CCCN2C1=O` [Ex 1269] ({CH2CO}-[2Nal]YD[NBuGly]YVGRL[Ahp(2)]PVDCG-OH; thioether N-14), the figure is 15.7 nM; as for `CCCCC[C@@H]1NC(=O)[C@H](CC(C)C)NC(=O)[C@H](CCCNC(=N)N)NC(=O)[C@H](CC(N)=O)NC(=O)[C@H](CCCC)NC(=O)[C@H](Cc2ccc(O)cc2)NC(=O)CN(CCCC)C(=O)[C@H](CC(=O)O)NC(=O)[C@H](Cc2ccc(O)cc2)NC(=O)[C@H](Cc2ccc3ccccc3c2)NC(=O)CSC[C@@H](C(=O)NCC(=O)O)NC(=O)[C@H](CC(=O)O)NC(=O)[C@H](C(C)C)NC(=O)[C@@H]2CCCN2C1=O` [Ex 1270] ({CH2CO}-[2Nal]YD[NBuGly]Y[Nle]NRL[Ahp(2)]PVDCG-OH; thioether N-14), 2.4 nM.
Turning to `CCCCC[C@@H]1NC(=O)[C@H](CC(C)C)NC(=O)[C@H](CCCNC(=N)N)NC(=O)[C@H](CC(N)=O)NC(=O)[C@H](CCCC)NC(=O)[C@H](Cc2ccc(O)cc2)NC(=O)CN(CCCC)C(=O)[C@H](CC(=O)O)NC(=O)[C@H](Cc2ccc(O)cc2)NC(=O)[C@H](Cc2ccc3ccccc3c2)NC(=O)CSC[C@@H](C(=O)NCC(N)=O)NC(=O)[C@H](CC(=O)O)NC(=O)[C@H](C(C)C)NC(=O)[C@@H]2CCCN2C1=O` [Ex 1271] ({CH2CO}-[2Nal]YD[NBuGly]Y[Nle]NRL[Ahp(2)]PVDCG-NH2; thioether N-14), the IC50 was 8 nM.
The figure for `CCCCCCN1CC(=O)N[C@@H](Cc2ccc(O)cc2)C(=O)N[C@@H](CCCC)C(=O)N[C@@H](CC(N)=O)C(=O)N[C@@H](CCCNC(=N)N)C(=O)N[C@@H](CC(C)C)C(=O)N[C@@H](CCCCC)C(=O)N2CCC[C@H]2C(=O)N[C@@H](C(C)C)C(=O)N[C@@H](CO)C(=O)N[C@H](C(=O)NCC(=O)O)CSCC(=O)N[C@@H](Cc2ccc3ccccc3c2)C(=O)N[C@@H](Cc2ccc(O)cc2)C(=O)N[C@@H](CC(=O)O)C1=O` [Ex 1272] ({CH2CO}-[2Nal]YD[NHexGly]Y[Nle]NRL[Ahp(2)]PVSCG-OH; thioether N-14) is 2.8 nM; for `CCCCCCN1CC(=O)N[C@@H](Cc2ccc(O)cc2)C(=O)N[C@@H](CCCCC)C(=O)NCC(=O)N[C@@H](CCCNC(=N)N)C(=O)N[C@@H](CC(C)C)C(=O)N[C@@H](CCCCC)C(=O)N2CCC[C@H]2C(=O)N[C@@H](C(C)C)C(=O)N[C@@H](CO)C(=O)N[C@H](C(=O)NCC(N)=O)CSCC(=O)N[C@@H](Cc2ccc3ccccc3c2)C(=O)N[C@@H](Cc2ccc(O)cc2)C(=O)N[C@@H](CC(=O)O)C1=O` [Ex 1273] ({CH2CO}-[2Nal]YD[NHexGly]Y[Ahp(2)]GRL[Ahp(2)]PVSCG-NH2; thioether N-14) it is 14.3 nM; for `CCCCCCN1CC(=O)N[C@@H](Cc2ccc(O)cc2)C(=O)N[C@@H](CC(C)C)C(=O)NCC(=O)N[C@@H](CCCNC(=N)N)C(=O)N[C@@H](CC(C)C)C(=O)N[C@@H](CCCCC)C(=O)N2CCC[C@H]2C(=O)N[C@@H](C(C)C)C(=O)N[C@@H](CO)C(=O)N[C@H](C(=O)NCC(=O)O)CSCC(=O)N[C@@H](Cc2ccc3ccccc3c2)C(=O)N[C@@H](Cc2ccc(O)cc2)C(=O)N[C@@H](CC(=O)O)C1=O` [Ex 1274] ({CH2CO}-[2Nal]YD[NHexGly]YLGRL[Ahp(2)]PVSCG-OH; thioether N-14) it is 32 nM.
As for `CCCCCCN1CC(=O)N[C@@H](Cc2ccc(O)cc2)C(=O)N[C@@H](CC(C)C)C(=O)NCC(=O)N[C@@H](CCCNC(=N)N)C(=O)N[C@@H](CC(C)C)C(=O)N[C@@H](CCCCC)C(=O)N2CCC[C@H]2C(=O)N[C@@H](C(C)C)C(=O)N[C@@H](CO)C(=O)N[C@H](C(=O)NCC(N)=O)CSCC(=O)N[C@@H](Cc2ccc3ccccc3c2)C(=O)N[C@@H](Cc2ccc(O)cc2)C(=O)N[C@@H](CC(=O)O)C1=O` [Ex 1275] ({CH2CO}-[2Nal]YD[NHexGly]YLGRL[Ahp(2)]PVSCG-NH2; thioether N-14), the figure is 35.9 nM; as for `CCCCCCN1CC(=O)N[C@@H](Cc2ccc(O)cc2)C(=O)N[C@@H](CCCC)C(=O)NCC(=O)N[C@@H](CCCNC(=N)N)C(=O)N[C@@H](CC(C)C)C(=O)N[C@@H](CCCCC)C(=O)N2CCC[C@H]2C(=O)N[C@@H](C(C)C)C(=O)N[C@@H](CO)C(=O)N[C@H](C(=O)NCC(N)=O)CSCC(=O)N[C@@H](Cc2ccc3ccccc3c2)C(=O)N[C@@H](Cc2ccc(O)cc2)C(=O)N[C@@H](CC(=O)O)C1=O` [Ex 1276] ({CH2CO}-[2Nal]YD[NHexGly]Y[Nle]GRL[Ahp(2)]PVSCG-NH2; thioether N-14), 40.6 nM.
The figure for `CCCCCCN1CC(=O)N[C@@H](Cc2ccc(O)cc2)C(=O)N[C@@H](C(C)C)C(=O)NCC(=O)N[C@@H](CCCNC(=N)N)C(=O)N[C@@H](CC(C)C)C(=O)N[C@@H](CCCCC)C(=O)N2CCC[C@H]2C(=O)N[C@@H](C(C)C)C(=O)N[C@@H](CO)C(=O)N[C@H](C(=O)NCC(=O)O)CSCC(=O)N[C@@H](Cc2ccc3ccccc3c2)C(=O)N[C@@H](Cc2ccc(O)cc2)C(=O)N[C@@H](CC(=O)O)C1=O` [Ex 1277] ({CH2CO}-[2Nal]YD[NHexGly]YVGRL[Ahp(2)]PVSCG-OH; thioether N-14) is 23.2 nM.

The values above are taken from patent publication US20240218022A1, “ANTI-VISTA MACROCYCLIC PEPTIDES AND COMPOSITIONS” (BRISTOL-MYERS SQUIBB COMPANY, priority 2022, published 2024).
